# According to patent US12630604B2, “Methods of making chimeric antigen receptor-expressing cells” (Novartis AG, priority 2018, dated 2026):
# Entries after “also recorded” stand apart in the source; their conditions may differ.
# Legend:
# Assay type in all cases: cell-based
# T cells [1] = assay: ARM-BCMA CAR expression kinetics in vitro with or without AZT (FACS); conditions: 30 μM and 100 μM doses
# Procedure: In contrast to TM which measures lentiviral integration of the CAR transgene after 8-9 days, in the ARM process, the lentiviral transgene may not be fully integrated and truly expressed within 24 h post lentiviral addition, as lentiviral pseudotransduction could occur (Haas D L, et al., (2000) Mol Ther; 2(1):71-80; Galla M, et al., (2004) Mol Cell; 16(2):309-15). Therefore, the BCMA-CAR expression pattern was evaluated over time by extended culturing of ARM-BCMA CAR in vitro in the presence or absence of 3′-azido-3′-deoxythymidine (AZT) to evaluate the potential pseudotransduction versus stable integration and expression of the CAR transgene. Flow cytometry (FACS) analyses were performed to detect CAR surface expression at 24 h, 48 h, 72 h, 96 h and 168 h post T cell activation and transduction with the lentiviral vector. In some cases, ARM-BCMA CAR and an aliquot of this product were frozen down immediately upon harvest for additional characterization in other assays.
# T cells [2] = assay: T cell culture with cytokines after αCD3/αCD28 bead activation (expansion, size, viability); conditions: for T cell expansion: T cells activated with αCD3αCD28 beads at day 0 in presence of cytokine; for cell size and viability: after TCR engagement
# Procedure: Previously frozen T cells were thawed and contacted with αCD3/αCD28 dynal beads (cell to bead ratio of 1 to 3) in the presence of indicated cytokines at day 0. From day 3, twice more T cell growth media (RPMI1640, 10% FBS, 2 mM L-glutamin, 100 μM non-essential amino acids, 1 mM sodium pyruvate, 10 mM Hepes, 55 μM β-mercaptoethanol, 10% FBS, and 100 U/ml of penicillin-streptomycin) was added to the plate with indicated cytokines (without cytokine, rhIL2 (501 U/ml, Novartis), IL6 (10 ng/ml, R&D systems), IL7 (10 ng/ml, Peprotech), IL15 (10 ng/ml, Peprotech), and IL21 (10 ng/ml, Peprotech)) at day 3, 5, 6, 9, 12, 15, and 18.
# IL6Rβ expressing cells = assay: Cell surface staining (IL6Rα/IL6Rβ and differentiation markers); conditions: after TCR engagement
# Text: Cells were harvested at indicated time points and then stained with live/dead dye (eFluro780, eBioscience), CD3 (BioLegend, clone #: OKT3), CD4 (BioLegend, clone #: OKT4), CD8 (BD Bioscience, clone #: RPA-T8), CD45RO (BioLegend, clone #: UCHL1), CCR7 (BioLegend, clone #: G043H7), CD27 (BD Horizon, clone #: L128), CD127 (BioLegend, clone #: A019D5), CD57 (BioLegend, clone #: HCD57), CD126 (BioLegend, clone #: UV4), and CD130 (R&D Systems, clone #: 28126) antibodies. The cells were acquired by FACS Fortessa and then FlowJo program was used for data analysis.
# T cells [3] = assay: T cell differentiation status by flow cytometry (CCR7/CD45RO), cytokine process; conditions: purified T cells cultured with cytokine 24 hours, no CD3/CD28 stimulation
# Procedure: The cells were immunophenotyped for T cell differentiation status and transduction of the CAR was assessed using flow cytometry. The cells were washed, viability dye was added followed by the antibody cocktail (Table 20), and the plates were incubated for 20 minutes at room temperature. After the incubation, the cells were washed twice and fixed prior to being analyzed on the BD fortessa.
Molecule,inhibition of CAR expression (T cells [1]),T cell expansion (T cells [2]),cell size and viability (T cells [2]),expansion of IL6Rβ expressing cells (IL6Rβ expressing cells),maintenance of self-renewing / naïve T cells (CD45RO−CCR7+) (T cells [3])
"Cc1cn([C@H]2C[C@H](N=[N+]=[N-])[C@@H](CO)O2)c(=O)[nH]c1=O [AZT, 3′-azido-3′-deoxythymidine]",effectively inhibit CAR expression,–,–,–,–
IL-15: cytokine,–,enhanced T cell expansion; also recorded: the greatest enhancement,did not affect cell size and viability,enhanced expansion of IL6Rβ expressing cells,maintained self-renewing T cells in vitro
"IL7: cytokine (protein, UniProt P13232 26-177, looked up) Interleukin-7: DCDIEGKDGKQYESVLMVSIDQLLDSMKEIGSNCLNNEFNFFKRHICDANKEGMFLFRAARKLRQFLKMNSTGDFDLHLLKVSEGTTILLNCTGQVKGRKPAALGEAQPTKSLEENKSLKEQKKLNDLCFLKRLLQEIKTCWNKILMGTKEH",–,enhanced T cell expansion,did not affect cell size and viability,–,–
